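Method: 48-hour compound exposure of cells in 96-well plates, five concentrations, linear interpolation of endpoints. Definition used: TGI = concentration required for complete inhibition of growth.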
Columns and labels:
Test in all cases: NCI tumour cell line growth inhibition, 48 h
SF-539 CNS = test system: SF-539 CNS
CCRF-CEM leukemia = test system: CCRF-CEM leukemia
SR leukemia = test system: SR leukemia
BT-549 breast = test system: BT-549 breast
HCT-15 colon = test system: HCT-15 colon
SW-620 colon = test system: SW-620 colon
HOP-62 NSCLC = test system: HOP-62 NSCLC
HOP-92 NSCLC = test system: HOP-92 NSCLC
SK-MEL-5 melanoma = test system: SK-MEL-5 melanoma
UO-31 renal = test system: UO-31 renal
MOLT-4 leukemia = test system: MOLT-4 leukemia
SNB-19 CNS = test system: SNB-19 CNS
RXF 393 renal = test system: RXF 393 renal
HT29 colon = test system: HT29 colon
MDA-MB-231 breast = test system: MDA-MB-231 breast
EKVX NSCLC = test system: EKVX NSCLC
SN12C renal = test system: SN12C renal
A549 NSCLC = test system: A549 NSCLC
A498 renal = test system: A498 renal
KM12 colon = test system: KM12 colon
NCI-H226 lung = test system: NCI-H226 lung
MALME-3M melanoma = test system: MALME-3M melanoma
NCI-H460 lung = test system: NCI-H460 lung
UACC-257 melanoma = test system: UACC-257 melanoma
OVCAR-3 ovarian = test system: OVCAR-3 ovarian
SK-MEL-2 melanoma = test system: SK-MEL-2 melanoma
LOX IMVI melanoma = test system: LOX IMVI melanoma
SF-295 CNS = test system: SF-295 CNS
NCI-H522 lung = test system: NCI-H522 lung
T-47D breast = test system: T-47D breast
OVCAR-8 ovarian = test system: OVCAR-8 ovarian
K-562 leukemia = test system: K-562 leukemia
U251 CNS = test system: U251 CNS
TK-10 renal = test system: TK-10 renal
NCI/ADR-RES ovarian = test system: NCI/ADR-RES ovarian
HS 578T breast = test system: HS 578T breast
UACC-62 melanoma = test system: UACC-62 melanoma
PC-3 prostate = test system: PC-3 prostate
SK-MEL-28 melanoma = test system: SK-MEL-28 melanoma
COLO 205 colon = test system: COLO 205 colon
HCT-116 colon = test system: HCT-116 colon
SNB-75 CNS = test system: SNB-75 CNS
DU-145 prostate = test system: DU-145 prostate
SF-268 CNS = test system: SF-268 CNS
ACHN renal = test system: ACHN renal
M14 melanoma = test system: M14 melanoma
HCC-2998 colon = test system: HCC-2998 colon
OVCAR-4 ovarian = test system: OVCAR-4 ovarian
CAKI-1 renal = test system: CAKI-1 renal
RPMI-8226 leukemia = test system: RPMI-8226 leukemia
786-0 renal = test system: 786-0 renal
NCI-H23 lung = test system: NCI-H23 lung
HL-60(TB) leukemia = test system: HL-60(TB) leukemia
MDA-N = test system: MDA-N
OVCAR-5 ovarian = test system: OVCAR-5 ovarian
MCF7 breast = test system: MCF7 breast
MDA-MB-435 = test system: MDA-MB-435
IGROV1 ovarian = test system: IGROV1 ovarian
M19-MEL melanoma = test system: M19-MEL melanoma
DLD-1 colon = test system: DLD-1 colon
KM20L2 colon = test system: KM20L2 colon
LXFL 529 NSCLC = test system: LXFL 529 NSCLC
SNB-78 CNS = test system: SNB-78 CNS
HOP-18 NSCLC = test system: HOP-18 NSCLC
SK-OV-3 ovarian = test system: SK-OV-3 ovarian
XF 498 CNS = test system: XF 498 CNS
DMS 114 small cell lung = test system: DMS 114 small cell lung

In the case of `COc1cc(OC)c2nc(C)c3c(c2c1)OCC3`, the TGI (SF-539 CNS) was > 100 µM, the TGI (CCRF-CEM leukemia) was > 100 µM and the TGI (SR leukemia) was > 100 µM. The TGI (BT-549 breast) was > 100 µM, the TGI (HCT-15 colon) was > 100 µM and the TGI (SW-620 colon) was > 100 µM. The TGI (HOP-62 NSCLC) was > 100 µM, the TGI (HOP-92 NSCLC) was > 100 µM and the TGI (SK-MEL-5 melanoma) was > 100 µM. For the same compound, the TGI (UO-31 renal) was > 100 µM, the TGI (MOLT-4 leukemia) was > 100 µM and the TGI (SNB-19 CNS) was > 100 µM. For the same compound, the TGI (RXF 393 renal) was 62.6 µM, the TGI (HT29 colon) was > 100 µM and the TGI (MDA-MB-231 breast) was 52.9 µM. For the same compound, the TGI (EKVX NSCLC) was > 100 µM, the TGI (SN12C renal) was > 100 µM and the TGI (A549 NSCLC) was > 100 µM. For the same compound, the TGI (A498 renal) was > 100 µM, the TGI (KM12 colon) was > 100 µM and the TGI (NCI-H226 lung) was > 100 µM. The TGI (MALME-3M melanoma) was > 100 µM, the TGI (NCI-H460 lung) was > 100 µM and the TGI (UACC-257 melanoma) was > 100 µM. For the same compound, the TGI (OVCAR-3 ovarian) was > 100 µM, the TGI (SK-MEL-2 melanoma) was > 100 µM and the TGI (LOX IMVI melanoma) was > 100 µM. For the same compound, the TGI (SF-295 CNS) was > 100 µM, the TGI (NCI-H522 lung) was > 100 µM and the TGI (T-47D breast) was > 100 µM. For the same compound, the TGI (OVCAR-8 ovarian) was > 100 µM, the TGI (K-562 leukemia) was > 100 µM and the TGI (U251 CNS) was > 100 µM. The TGI (TK-10 renal) was > 100 µM, the TGI (NCI/ADR-RES ovarian) was > 100 µM and the TGI (HS 578T breast) was > 100 µM. For the same compound, the TGI (UACC-62 melanoma) was > 100 µM, the TGI (PC-3 prostate) was > 100 µM and the TGI (SK-MEL-28 melanoma) was > 100 µM. The TGI (COLO 205 colon) was > 100 µM, the TGI (HCT-116 colon) was > 100 µM and the TGI (SNB-75 CNS) was > 100 µM. For the same compound, the TGI (DU-145 prostate) was > 100 µM, the TGI (SF-268 CNS) was > 100 µM and the TGI (ACHN renal) was > 100 µM. The TGI (M14 melanoma) was > 100 µM, the TGI (HCC-2998 colon) was > 100 µM and the TGI (OVCAR-4 ovarian) was > 100 µM. For the same compound, the TGI (CAKI-1 renal) was 72 µM, the TGI (RPMI-8226 leukemia) was > 100 µM and the TGI (786-0 renal) was > 100 µM. For the same compound, the TGI (NCI-H23 lung) was > 100 µM, the TGI (HL-60(TB) leukemia) was > 100 µM and the TGI (MDA-N) was > 100 µM. The TGI (OVCAR-5 ovarian) was > 100 µM, the TGI (MCF7 breast) was > 100 µM and the TGI (MDA-MB-435) was > 100 µM. For the same compound, the TGI (IGROV1 ovarian) was > 100 µM.
In the case of `CC1NCCc2c1[nH]c1cc(O)ccc21` (configuration not stated), the TGI (SF-539 CNS) was > 100 µM, the TGI (CCRF-CEM leukemia) was > 100 µM and the TGI (HCT-15 colon) was > 100 µM. The TGI (SW-620 colon) was > 100 µM, the TGI (HOP-62 NSCLC) was > 100 µM and the TGI (HOP-92 NSCLC) was > 100 µM. The TGI (M19-MEL melanoma) was > 100 µM, the TGI (SK-MEL-5 melanoma) was > 100 µM and the TGI (UO-31 renal) was > 100 µM. For the same compound, the TGI (DLD-1 colon) was > 100 µM, the TGI (MOLT-4 leukemia) was > 100 µM and the TGI (SNB-19 CNS) was > 100 µM. The TGI (RXF 393 renal) was > 100 µM, the TGI (HT29 colon) was > 100 µM and the TGI (EKVX NSCLC) was > 100 µM. For the same compound, the TGI (SN12C renal) was > 100 µM, the TGI (A549 NSCLC) was > 100 µM and the TGI (A498 renal) was > 100 µM. For the same compound, the TGI (KM20L2 colon) was > 100 µM, the TGI (KM12 colon) was > 100 µM and the TGI (NCI-H226 lung) was > 100 µM. The TGI (MALME-3M melanoma) was > 100 µM, the TGI (NCI-H460 lung) was > 100 µM and the TGI (UACC-257 melanoma) was > 100 µM. The TGI (OVCAR-3 ovarian) was > 100 µM, the TGI (SK-MEL-2 melanoma) was > 100 µM and the TGI (LOX IMVI melanoma) was > 100 µM. For the same compound, the TGI (SF-295 CNS) was > 100 µM, the TGI (OVCAR-8 ovarian) was > 100 µM and the TGI (K-562 leukemia) was > 100 µM. For the same compound, the TGI (LXFL 529 NSCLC) was > 100 µM, the TGI (SNB-78 CNS) was > 100 µM and the TGI (TK-10 renal) was > 100 µM. For the same compound, the TGI (UACC-62 melanoma) was > 100 µM, the TGI (SK-MEL-28 melanoma) was > 100 µM and the TGI (COLO 205 colon) was > 100 µM. The TGI (HCT-116 colon) was > 100 µM, the TGI (HOP-18 NSCLC) was > 100 µM and the TGI (SK-OV-3 ovarian) was > 100 µM. The TGI (SNB-75 CNS) was > 100 µM, the TGI (SF-268 CNS) was > 100 µM and the TGI (XF 498 CNS) was > 100 µM. The TGI (ACHN renal) was > 100 µM, the TGI (M14 melanoma) was > 100 µM and the TGI (HCC-2998 colon) was > 100 µM. For the same compound, the TGI (OVCAR-4 ovarian) was > 100 µM, the TGI (CAKI-1 renal) was > 100 µM and the TGI (RPMI-8226 leukemia) was > 100 µM. The TGI (786-0 renal) was > 100 µM, the TGI (NCI-H23 lung) was > 100 µM and the TGI (HL-60(TB) leukemia) was > 100 µM. The TGI (OVCAR-5 ovarian) was > 100 µM, the TGI (DMS 114 small cell lung) was > 100 µM and the TGI (IGROV1 ovarian) was > 100 µM.

Reference: PubChem BioAssay (NCI)
